We go through one compound from article PMC10415136, “Reverse transcriptases prime DNA synthesis” (Nucleic Acids Research, 2023).

Each structure is given as a SMILES string.

One assay addresses T1, ScTy3 RT (Saccharomyces cerevisiae, UniProt Q99315).
T1 construct: gene TY3B-G; RT domain aa 1-339 of the mature RT from Ty3 Gag-Pol polyprotein, C-terminal MBP fusion; recombinant from E. coli
T1 sequence (Q99315 536-874): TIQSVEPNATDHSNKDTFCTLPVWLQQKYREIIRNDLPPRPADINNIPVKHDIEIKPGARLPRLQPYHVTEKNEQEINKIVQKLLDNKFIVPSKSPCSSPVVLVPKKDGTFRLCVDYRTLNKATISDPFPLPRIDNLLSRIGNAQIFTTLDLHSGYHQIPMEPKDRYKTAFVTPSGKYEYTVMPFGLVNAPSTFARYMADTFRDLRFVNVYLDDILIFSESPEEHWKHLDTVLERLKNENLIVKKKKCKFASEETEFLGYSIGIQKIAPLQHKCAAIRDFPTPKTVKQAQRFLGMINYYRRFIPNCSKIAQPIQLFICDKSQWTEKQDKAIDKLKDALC
The experiment in a line: gel-based primase assay. It counts as biochemical. Particulars: DNA or RNA template, gamma-phosphate FAM-labelled GTP, Mn2+.

The next assay addresses T2, LlLtrA RT domain (Lactococcus cremoris, UniProt P0A3U0).
T2 construct: gene ltrA; RT domain aa 1-472, endonuclease domain removed; recombinant from E. coli; catalytic D308, D309
T2 sequence (P0A3U0 1-472): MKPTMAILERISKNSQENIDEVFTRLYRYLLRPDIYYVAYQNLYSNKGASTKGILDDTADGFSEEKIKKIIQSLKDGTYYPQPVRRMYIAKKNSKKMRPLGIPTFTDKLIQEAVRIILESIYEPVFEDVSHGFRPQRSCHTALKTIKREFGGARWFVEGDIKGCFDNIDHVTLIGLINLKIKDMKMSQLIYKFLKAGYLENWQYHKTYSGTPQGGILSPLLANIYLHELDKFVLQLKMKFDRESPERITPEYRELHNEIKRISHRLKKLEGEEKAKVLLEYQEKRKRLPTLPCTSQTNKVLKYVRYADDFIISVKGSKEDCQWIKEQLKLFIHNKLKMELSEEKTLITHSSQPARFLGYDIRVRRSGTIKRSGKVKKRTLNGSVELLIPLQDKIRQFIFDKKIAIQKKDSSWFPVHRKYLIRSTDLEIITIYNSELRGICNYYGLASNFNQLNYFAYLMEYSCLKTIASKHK
The experiment in a line: gel-based primase assay. The assay is classed as biochemical. Particulars: RNA template (oMZ27), gamma-phosphate FAM-labelled GTP, Mn2+.

For `Nc1nc2c(ncn2[C@H]2C[C@H](O)[C@@H](COP(=O)(O)OP(=O)(O)OP(=O)(O)O)O2)c(=O)[nH]1` [dGTP], the gel-based primase assay entry on ScTy3 RT was “ScTy3 RT is efficient DNA and RNA-dependent primase”; at LlLtrA RT domain, “LlLtrA RT is an RNA-dependent primase”.
